Experimental data taken from PubChem BioAssay AID2060503 (Molecular Pharmacology Branch, DTP, NCI, 2025).

Tested on: 817829-284-R-J1-PDC complex spheroids, viability
Assay: Anticancer human tumor 817829-284-R-J1-PDC patient-derived colon adenocarcinoma cell line growth inhibition [GQUAD]
Conditions: for IC50: curve of first compound; for viability, T/C: stronger effect = lower value
Outline: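 Viability of tumor cells grown as complex spheroids with endothelial and stromal cells, exposed to drug combinations. Top concentration at or near clinical Cmax (else 10 microM), diluted in half-log increments.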

[1] = second compound 0.0316 µM, first compound 0.0316 µM
[2] = second compound 0.0316 µM, first compound 0.1 µM
[3] = second compound 0.0316 µM, first compound 0.316 µM
[4] = second compound 0.0316 µM, first compound 1 µM
[5] = second compound 0.0316 µM, first compound 3.16 µM
[6] = second compound 0.0316 µM, first compound 10 µM
[7] = second compound 0.1 µM, first compound 0.0316 µM
[8] = second compound 0.1 µM, first compound 0.1 µM
[9] = second compound 0.1 µM, first compound 0.316 µM
[10] = second compound 0.1 µM, first compound 1 µM
[11] = second compound 0.1 µM, first compound 3.16 µM
[12] = second compound 0.1 µM, first compound 10 µM
[13] = second compound 0.316 µM, first compound 0.0316 µM
[14] = second compound 0.316 µM, first compound 0.1 µM
[15] = second compound 0.316 µM, first compound 0.316 µM
[16] = second compound 0.316 µM, first compound 1 µM
[17] = second compound 0.316 µM, first compound 3.16 µM
[18] = second compound 0.316 µM, first compound 10 µM
[19] = second compound 1 µM, first compound 0.0316 µM
[20] = second compound 1 µM, first compound 0.1 µM
[21] = second compound 1 µM, first compound 0.316 µM
[22] = second compound 1 µM, first compound 1 µM
[23] = second compound 1 µM, first compound 3.16 µM
[24] = second compound 1 µM, first compound 10 µM
[25] = second compound 3.16 µM, first compound 0.0316 µM
[26] = second compound 3.16 µM, first compound 0.1 µM
[27] = second compound 3.16 µM, first compound 0.316 µM
[28] = second compound 3.16 µM, first compound 1 µM
[29] = second compound 3.16 µM, first compound 3.16 µM
[30] = second compound 3.16 µM, first compound 10 µM
[31] = second compound 10 µM, first compound 0.0316 µM
[32] = second compound 10 µM, first compound 0.1 µM
[33] = second compound 10 µM, first compound 0.316 µM
[34] = second compound 10 µM, first compound 1 µM
[35] = second compound 10 µM, first compound 3.16 µM
[36] = second compound 10 µM, first compound 10 µM
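Further: spheroids exposed to agents for 7 days before readout.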
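Wherever viability, T/C is given: percent viability relative to DMSO vehicle control taken as 100%.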

O=c1[nH]cc(F)c(=O)[nH]1 + CN(C)c1ccc(Nc2c3ccc(NC(=O)CCN4CCCC4)cc3nc3cc(NC(=O)CCN4CCCC4)ccc23)cc1 showed an IC50 (second compound 0.0316 µM) of 2.12 µM, an IC50 (second compound 0.1 µM) of 2.45 µM and an IC50 (second compound 0.316 µM) of 2.4 µM. The IC50 (second compound 1 µM) was 2.7 µM, the IC50 (second compound 3.16 µM) was 2.51 µM and the IC50 (second compound 10 µM) was 2.69 µM. For the same compound, the viability, T/C [1] was 112%, the viability, T/C [2] was 104% and the viability, T/C [3] was 119%. For the same compound, the viability, T/C [4] was 73.4%, the viability, T/C [5] was 44.2% and the viability, T/C [6] was 30.7%. For the same compound, the viability, T/C [7] was 101%, the viability, T/C [8] was 102% and the viability, T/C [9] was 94.3%. It also gave a viability, T/C [10] of 84.3%, a viability, T/C [11] of 39.9% and a viability, T/C [12] of 29.3%. The viability, T/C [13] was 102%, the viability, T/C [14] was 106% and the viability, T/C [15] was 97.1%. For the same compound, the viability, T/C [16] was 78.7%, the viability, T/C [17] was 40.7% and the viability, T/C [18] was 29.6%. The viability, T/C [19] was 99.5%, the viability, T/C [20] was 101% and the viability, T/C [21] was 108%. It also gave a viability, T/C [22] of 83%, a viability, T/C [23] of 45.7% and a viability, T/C [24] of 31.6%. It also gave a viability, T/C [25] of 91.2%, a viability, T/C [26] of 96.7% and a viability, T/C [27] of 102%. The viability, T/C [28] was 74.1%, the viability, T/C [29] was 45.4% and the viability, T/C [30] was 29%. For the same compound, the viability, T/C [31] was 102%, the viability, T/C [32] was 95.9% and the viability, T/C [33] was 100%. It also gave a viability, T/C [34] of 80.5%, a viability, T/C [35] of 45.3% and a viability, T/C [36] of 31.9%.

With CC(C)n1c(=O)n(C)c2cnc3cc(F)c(-c4ccc(OCCCN5CCCCC5)nc4)cc3c21 + Cc1[nH]c2ccc(F)cc2c1-c1nc2c3cccnc3c3ncccc3c2[nH]1 the IC50 (second compound 0.0316 µM) was > 10 µM, the IC50 (second compound 0.1 µM) was > 10 µM and the IC50 (second compound 0.316 µM) was > 10 µM. It also gave an IC50 (second compound 1 µM) of 7.83 µM, an IC50 (second compound 3.16 µM) of 4.57 µM and an IC50 (second compound 10 µM) of 0.549 µM. The viability, T/C [1] was 120%, the viability, T/C [2] was 82.6% and the viability, T/C [3] was 84.8%. It also gave a viability, T/C [4] of 94.4%, a viability, T/C [5] of 104% and a viability, T/C [6] of 94.9%. It also gave a viability, T/C [7] of 90.8%, a viability, T/C [8] of 106% and a viability, T/C [9] of 95.8%. It also gave a viability, T/C [10] of 107%, a viability, T/C [11] of 107% and a viability, T/C [12] of 117%. For the same compound, the viability, T/C [13] was 79.7%, the viability, T/C [14] was 99.8% and the viability, T/C [15] was 103%. For the same compound, the viability, T/C [16] was 103%, the viability, T/C [17] was 117% and the viability, T/C [18] was 103%. For the same compound, the viability, T/C [19] was 87.5%, the viability, T/C [20] was 104% and the viability, T/C [21] was 120%. The viability, T/C [22] was 102%, the viability, T/C [23] was 115% and the viability, T/C [24] was 35%. The viability, T/C [25] was 76.6%, the viability, T/C [26] was 90.9% and the viability, T/C [27] was 64.6%. For the same compound, the viability, T/C [28] was 78%, the viability, T/C [29] was 69.8% and the viability, T/C [30] was 7.73%. For the same compound, the viability, T/C [31] was 65.2%, the viability, T/C [32] was 73.3% and the viability, T/C [33] was 49.2%. The viability, T/C [34] was 46.5%, the viability, T/C [35] was 21.9% and the viability, T/C [36] was 5.4%.
